# Assay results reported in patent US8173598B2, “Myeloid protein activation of anti-inflammatory and anti-hypoxic pathway” (The Board of Trustees of the University of Illinois, priority 2008, dated 2012).
# No end group written: not given here.
# T1: PAR-4 (Homo sapiens, UniProt Q96RI0)
# T1 construct: host or cells: Chem-1 cells
# T1 sequence (Q96RI0 18-385): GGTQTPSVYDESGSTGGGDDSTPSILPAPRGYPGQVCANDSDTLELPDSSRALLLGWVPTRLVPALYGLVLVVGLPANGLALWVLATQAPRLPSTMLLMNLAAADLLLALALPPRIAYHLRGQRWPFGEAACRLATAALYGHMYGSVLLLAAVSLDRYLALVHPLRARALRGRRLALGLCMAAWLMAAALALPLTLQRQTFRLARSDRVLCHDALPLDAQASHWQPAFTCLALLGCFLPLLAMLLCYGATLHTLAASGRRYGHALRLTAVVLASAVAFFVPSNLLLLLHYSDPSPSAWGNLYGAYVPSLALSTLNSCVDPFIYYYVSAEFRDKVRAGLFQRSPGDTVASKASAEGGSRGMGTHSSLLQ
# B1: calprotectin: mixture of S100A8 and S100A9 at a 1:1 weight ratio referred to as calprotectin (protein)
# chain 1: MLTELEKALNSIIDVYHKYSLIKGNFHAVYRDDLKKLLETECPQYIRKKGADVWFKELDINTDGAVNFQEFLILVIKMGVAAHKKSHEESHKE
# chain 2: MTCKMSQLERNIETIINTFHQYSVKLGHPDTLNQGEFKELVRKDLQNFLKKENKNEKVIEHIMEDLDTNADKQLSFEEFIMLMARLTWASHEKMHEGDEGPGHHHKPGLGEGTP
# B2: ADA1: Human adenosine deaminase from human erythrocytes; deaminates adenosine to inosine (protein, UniProt P00813 2-363, looked up)
# Adenosine deaminase: AQTPAFDKPKVELHVHLDGSIKPETILYYGRRRGIALPANTAEGLLNVIGMDKPLTLPDFLAKFDYYMPAIAGCREAIKRIAYEFVEMKAKEGVVYVEVRYSPHLLANSKVEPIPWNQAEGDLTPDEVVALVGQGLQEGERDFGVKARSILCCMRHQPNWSPKVVELCKKYQQQTVVAIDLAGDETIPGSSLLPGHVQAYQEAVKSGIHRTVHAGEVGSAEVVKEAVDILKTERLGHGYHTLEDQALYNRLRQENMHFEICPWSSYLTGAWKPDTEHAVIRLKNDQANYSLNTDDPLIFKSTLDTDYQMTKRDMGFTEEEFKRLNINAAKSSFLPEDEKRELLDLLYKAYGMPPSASAGQNL
# B3: α1 antichymotrypsin: α1-Antichymotrypsin from human plasma; inhibits cathepsin G (protein)
# chain: HPNSPLDEENLTQENQDRGTHVDLGLASANVDFAFSLYKQLVLKAPDKNVIFSPLSISTALAFLSLGAHNTTLTEILKGLKFNLTETSEAEIHQSFQHLLRTLNQSSDELQLSMGNAMFVKEQLSLLDRFTEDAKRLYGSEAFATDFQDSAAAKKLINDYVKNGTRGKITDLIKDLDSQTMMVLVNYIFFKAKWEMPFDPQDTHQSRFYLSKKKWVMVPMMSLHHLTIPYFRDEELSCTVVELKYTGNASALFILPDQDKMEEVEAMLLPETLKRWRDSLEFREIGELYLPKFSISRDYNLNDILLQLGIEEAFTSKADLSGITGARNLAVSQVVHKAVLDVFEEGTEASAATAVKITLLSALVETRTIVRFNRPFLMIIVPTDTQNIFFMSKVTNPKQA
# Key:
# [1] = tested on: Human peripheral neutrophils; assay: Spontaneous oxidative activation of neutrophils (DCFH-DA oxidation); assay type: cell-based; settings: for rate of oxidation of the DCFH probe with soluble PAR ligands: soluble peptides given as 100 mM (FIG. 5); for rate of spontaneous oxidation of the DCFH-DA probe: 2.5 to 10 μg/ml of protein, followed over time, p <0.001 to <0.05; for oxidative metabolism (fluorescence emission of DCFH-DA probe): 1 h time point, all concentrations tested, P<0.05 compared to control; for spontaneous oxidation of the DCFH probe with protease inhibitors: α1 antichymotrypsin and elafin printed as 10 mM (FIG. 4)
# Source text: (§1) Human peripheral neutrophils were isolated from heparinized blood donated by healthy volunteers according to a protocol approved by the University of Illinois Institutional Review Board. The cells were isolated using a Histopaque™ gradient (Sigma) according to the manufacturer's instructions. Cell viability and identity was confirmed by trypan blue staining. Live cells and neutrophils represented at least 95% of isolated leukocytes.
# (§2) The method for the measurement of oxidative activation of neutrophils was based on the ROS-dependent oxidation of DCFH-DA to DCF and was adapted from Ciapetti et al. DCFH-DA crosses the cell membrane and is hydrolyzed by nonspecific esterases to nonfluorescent DCFH. Its oxidation by ROS results in the generation of highly fluorescent DCF [30]. DCFH-DA is therefore a widely accepted probe for the measurement of an overall index of oxidative activity. DCFH-DA was purchased from Calbiochem (Madison, Wis.). The assays were run in clear bottom black 96-well plate. “Edge effects” (a higher fluorescence in edge wells) were avoided by using only center wells. Briefly, 50 μl of Dulbecco's Phosphate Buffered Saline (DPBS) containing DCFH-DA was added to each well with the final concentration of […]. S100 proteins or PKC inhibitors were diluted in the wells. Just before a baseline reading 100,000 neutrophils in 50 μl PBS were placed in each well. 96-well plates were incubated at 37° C. and 5% CO2 and were read at baseline (immediately after cell addition to the plates) and at indicated time points in a Spectra Max Gemini XS fluorescent plate reader. The excitation wavelength was 485 and the reading was done at 530 nm. Wells with no DCFH-DA were used to measure background fluorescence which was subtracted from each reading. Controls with no cells were also analyzed and display no increased fluorescence over time. All assays were conducted in triplicate or quadruplicate wells.
# In order to avoid differences between donors, experimental procedures and plate to plate variation, all experimental conditions and statistical analysis were run within one plate inclusive of all positive and negative controls. Single sample t-tests were calculated to test the S100A8, S100A9 and combined proteins in comparison to the control wells with alpha set to ≦0.05 to determine statistical significance. Comparisons between the S100A8, S100A9 and combined proteins were calculated with two sample t-tests using SPSS (SPSS Inc., Chicago, Ill.) with alpha set to ≦0.05 to determine statistical relevance.
# [2] = tested on: Human peripheral neutrophils; assay: PMA induced activation of neutrophil oxidative metabolism (DCFH-DA oxidation); assay type: cell-based
# Source text: as §1, §2
# [3] = tested on: Human peripheral neutrophils; assay: LPS stimulated neutrophil oxidative metabolism (DCFH-DA oxidation); assay type: cell-based
# Source text: as §1, §2
# thrombin receptors = assay: Calcium flux and thrombin-S100A8/A9 cross-desensitization in Chem-3 cells; assay type: cell-based; settings: for calcium flux in Chem-3 cells: each alone
# Protocol: (§3) Screening for S100A8 and S100A9 activity on thrombin receptors including thrombin receptor desensitization were conducted with calcium flux assays in Chem 3 and PAR-4 expressing Chem.-1 cells by Millipore's GPCRProfiler(R) Service (Millipore, St. Charles, Mo.; see website Millipore website on the internet).
# PAR-4 = molecular target: T1, PAR-4; assay: Calcium flux and desensitization to thrombin in PAR-4 expressing Chem.-1 cells; assay type: cell-based
# Protocol: as §3
# neutrophils = settings: in-vitro; Sroussi et al., 2006, 2007; cited from earlier work
# [4] = 0.01 mU/ml ADA1, S100 proteins 10 to 2.5 μg/ml
molecule,measurement,setting,value
"CN(C)CCCn1cc(C2=C(c3c[nH]c4ccccc34)C(=O)NC2=O)c2ccccc21 [GFX, Bisindolylmaleimide I, reference compound]",spontaneous activation of neutrophils oxidative metabolism,[1]; 5 μM GFX,significantly inhibited both the PMA induced and the spontaneous activation of neutrophils oxidative metabolism
same,PMA induced activation of neutrophils oxidative metabolism,"[2]; 5 μM GFX, 1 μM PMA",significantly inhibited both the PMA induced and the spontaneous activation of neutrophils oxidative metabolism
"CCCCCCCCCCCCCC(=O)O[C@@H]1[C@@H](C)[C@@]2(O)[C@@H](C=C(CO)C[C@]3(O)C(=O)C(C)=C[C@@H]23)[C@@H]2C(C)(C)[C@]12OC(C)=O [PMA, phorbol 12-myristate 13-acetate, reference compound]",rate of DCFH oxidation by a PKC activator,[1]; 1 μM PMA,significantly accelerated the rate of DCFH oxidation
"COc1ccccc1NC(=O)Nc1nc(-c2cccnc2)nc2ccccc12 [VUF5574, N-(2-methoxyphenyl)-N′-[2-(3-pyridinyl)-4-quinazolinyl]-urea, reference compound]","effect on anti-oxidative effect of S100A8, spontaneous oxidative metabolism","[1]; 2.5 μg/ml S100A8, 1 hour",produces a dose sensitive inhibition the anti-oxidative effect of S100A8 on neutrophil spontaneous oxidative metabolism
same,"effect on anti-oxidative effect of S100A8 and S100A9, LPS exposed neutrophils","[3]; 10 μM, 10 μg/ml LPS",This anti-oxidative effect was countered
"GYPGQV-NH2 [PAR-4, reference compound]",rate of oxidation of the DCFH probe with soluble PAR ligands,[1],resulted in a significantly accelerated rate of oxidation of the DCFH probe
"S100A9: recombinant human S100A9 calcium binding protein, expressed in Escherichia coli as GST fusion, GST tag cleaved",rate of spontaneous oxidation of the DCFH-DA probe,[1],reduced the rate at which spontaneous oxidation of the DCFH-DA probe occurred in a dose dependent manner
same,oxidative metabolism (fluorescence emission of DCFH-DA probe),[1],significantly inhibited oxidative metabolism at all concentrations tested
same,PMA activation of neutrophils,[2]; dose dependent,produced a dose dependent inhibition of PMA activation of neutrophils
same,LPS stimulation of neutrophil oxidative activity,"[3]; 2.5 to 10 μg/ml of protein, LPS 10 μg/ml",strongly inhibited LPS stimulation of neutrophil oxidative activity
same,calcium flux in Chem-3 cells,thrombin receptors,trigger calcium flux in Chem-3 cells in a dose dependent manner
same,calcium flux in PAR-4 expressing cells,PAR-4; data not shown,activated calcium flux in those cells
same,desensitization of PAR-4 expressing cells to thrombin activation,"PAR-4; previous treatment with different concentrations, then 10 nM thrombin",dose dependently desensitized PAR-4 expressing cells to thrombin activation
same,neutrophil chemotaxis toward bacterial products (formylated peptides),neutrophils,inhibit neutrophil chemotaxis toward bacterial products
"SLIGKV-NH2 [PAR-2, reference compound]",rate of oxidation of the DCFH probe with soluble PAR ligands,[1],"not PAR-1, PAR-2 or PAR-3"
"TFLLRN [PAR-1, reference compound]",rate of oxidation of the DCFH probe with soluble PAR ligands,[1],"not PAR-1, PAR-2 or PAR-3"
"TFRGAP-NH2 [PAR-3, reference compound]",rate of oxidation of the DCFH probe with soluble PAR ligands,[1],"not PAR-1, PAR-2 or PAR-3"
"elafin: inhibitor of PR3 and elastase (AQEPVKGPVSTKPGSCPIILIRCAMLNPPNRCLKDTDCPGIKKCCEGSCGMACFVPQ; ends and bridges not checked; cysteine pairing not given here; UniProt P19957 61-117, looked up) [reference compound]",spontaneous oxidation of the DCFH probe with protease inhibitors,[1],no effect on DCFH oxidation
thrombin [reference compound],desensitization of Chem-3 cells to S100A8 or S100A9 stimulation,"thrombin receptors; 10 nM thrombin first, then 10 μM S100A8 or 10 μM S100A9",resulted in a desensitization of Chem-3 cells to further stimulation
same,calcium flux in Chem-3 cells,thrombin receptors,trigger calcium flux in Chem-3 cells in a dose dependent manner
B1,rate of spontaneous oxidation of the DCFH-DA probe,[1],reduced the rate at which spontaneous oxidation of the DCFH-DA probe occurred in a dose dependent manner
same,oxidative metabolism (fluorescence emission of DCFH-DA probe),[1],significantly inhibited oxidative metabolism at all concentrations tested
B2,effect on S100A8/S100A9 inhibition of spontaneous oxidative metabolism,[1]; [4],partially or fully abrogated
same,effect on S100A8/S100A9 inhibition of LPS stimulated oxidative metabolism,[3]; [4],partially or fully abrogated
B3,spontaneous oxidation of the DCFH probe with protease inhibitors,[1],caused a marked and significant reduction in the oxidation of the DCFH probe
